According to US12491180B2, “Application of compound in treating pneumonia” (SHENZHEN OPTIMUM BIOLOGICAL TECHNOLOGY CO., LTD., priority 2019, dated 2025):
≈ marks a conversion by molar mass, not a printed value.

Legend:
E. ae 14186 = assay: MIC, solid dilution method; format: cell-based, Enterobacter aerogenes; details: Klebsiella aerogenes; E. ae 14186; MHA agar, 37° C., 16-20 hours; read-out: MIC
Method: (§1) The above-mentioned glycerol-preserved strains were taken out from the −80° C. refrigerator, streaked and inoculated on MHA plates, labeled, and cultured overnight in a 37° C. incubator.
(§2) The inoculum was prepared directly from bacterial suspension, and several recovered colonies were picked and directly prepared into a bacterial suspension with a turbidity of No. 0.5 McFarland units in normal saline, and a 10-fold dilution was made during inoculation.
(§3) 6 bottles of MHA culture medium 500 mL/bottle were prepared, and the pH was adjusted to 7.2-7.4, sterilized at 121° C. for 15 min, and the medium was placed in a 55° C. water bath to keep warm.
(§4) Sterile blank petri dishes were taken, and marked with each FL drug/concentration according to 2-fold dilution, and 10 concentrations of each drug starting from 8 μg/mL were tested.
(§5) […]; 20 mL was aspirated and added to a petri dish consistent with the mark, and then 20 mL of MHA culture medium was added to the rest of the drug-containing culture medium, mixed evenly, that is, the 2-fold diluted drug-containing culture medium; 20 mL was aspirated and added to the petri dish consistent with the mark, and then diluted to the 10th concentration and the […] respectively by repeating the above-mentioned steps, and then poured into the petri dish.
(§6) 4 bacterial control petri dishes without drug were prepared at the same time as a control.
(§7) The positioning needle and the inoculation needle were installed according to the order of placement of the colony on the inoculation plate. After inoculation, a bacterial solution circle was formed on the petri dish. After the bacterial solution was absorbed by the agar, the petri dish was placed in an incubator at 37° C. for overnight incubation (16-20 hours), and then taken out.
(§8) The minimum inhibitory concentrations of the compounds against the CRE and CSE strains were determined by the solid dilution method, and the results are shown in Tables 3 and 4.

[1] = tested on: Klebsiella pneumoniae 11544; assay: MIC, solid dilution method; format: cell-based; details: K.p 11544, CRE clinical isolate, MHA agar, 37° C., 16-20 hours, read-out: MIC
Method: (§9) (2) Clinical isolated strains: CRE Klebsiella pneumoniae 5846, 11544, 12559, 13249 and CSE Klebsiella pneumoniae 8733, a total of 5 strains;
as §1, §2, §3, §4, §5, §6, §7, §8

[2] = tested on: Klebsiella pneumoniae 13249; assay: MIC, solid dilution method; format: cell-based; details: K.p 13249, CRE clinical isolate, MHA agar, 37° C., 16-20 hours, read-out: MIC
Method: as §9, §1, §2, §3, §4, §5, §6, §7, §8

[3] = tested on: Klebsiella pneumoniae 12559; assay: MIC, solid dilution method; format: cell-based; details: K.p 12559, CRE clinical isolate, MHA agar, 37° C., 16-20 hours, read-out: MIC
Method: as §9, §1, §2, §3, §4, §5, §6, §7, §8

[4] = tested on: Klebsiella pneumoniae 5846; assay: MIC, solid dilution method; format: cell-based; details: K.p 5846, CRE clinical isolate, MHA agar, 37° C., 16-20 hours, read-out: MIC
Method: as §9, §1, §2, §3, §4, §5, §6, §7, §8

[5] = tested on: Klebsiella pneumoniae 8733; assay: MIC, solid dilution method; format: cell-based; details: K.p 8733, CSE clinical isolate, MHA agar, 37° C., 16-20 hours, read-out: MIC
Method: as §9, §1, §2, §3, §4, §5, §6, §7, §8

[6] = tested on: Enterobacter aerogenes 8193; assay: MIC, solid dilution method; format: cell-based; details: Klebsiella aerogenes; E. ae 8193, CRE clinical isolate; MHA agar, 37° C., 16-20 hours; read-out: MIC
Method: CRE Enterobacter aerogenes 8193, a total of 1 strain;
as §1, §2, §3, §4, §5, §6, §7, §8

16 clinical CRE strains = assay: MIC50, MIC90 and MIC range against 16 clinical CRE strains; format: cell-based; details: 16 clinical CRE strains; for MIC50: read-out: MIC50; for MIC90: read-out: MIC90
Method: as §1, §2, §3, §4, §5, §6, §7, §8

[7] = tested on: Enterobacter cloacae 11699; assay: MIC, solid dilution method; format: cell-based; details: E. cl 11699, CSE clinical isolate, MHA agar, 37° C., 16-20 hours, read-out: MIC
Method: as §1, §2, §4, §6, §7

[8] = tested on: Enterobacter cloacae 14653; assay: MIC, solid dilution method; format: cell-based; details: E. cl 14653, CRE clinical isolate, MHA agar, 37° C., 16-20 hours, read-out: MIC
Method: as §1, §2, §4, §6, §7

[9] = tested on: Enterobacter cloacae 11090; assay: MIC, solid dilution method; format: cell-based; details: E. cl 11090, CRE clinical isolate, MHA agar, 37° C., 16-20 hours, read-out: MIC
Method: as §1, §2, §4, §6, §7

Klebsiella oxytoca 6777 = assay: MIC, solid dilution method; format: cell-based; details: K. ox 6777, CRE clinical isolate, MHA agar, 37° C., 16-20 hours, read-out: MIC
Method: as §1, §2, §3, §4, §5, §6, §7, §8

Escherichia coli 14828 = assay: MIC, solid dilution method; format: cell-based; details: E. coli 14828, CRE clinical isolate, MHA agar, 37° C., 16-20 hours, read-out: MIC
Method: as §1, §2, §3, §4, §5, §6, §7, §8

Escherichia coli 13897 = assay: MIC, solid dilution method; format: cell-based; details: E. coli 13897, CRE clinical isolate, MHA agar, 37° C., 16-20 hours, read-out: MIC
Method: as §1, §2, §3, §4, §5, §6, §7, §8

[10] = tested on: Citrobacter freundii 9434; assay: MIC, solid dilution method; format: cell-based; details: C.f 9434, CRE clinical isolate, MHA agar, 37° C., 16-20 hours, read-out: MIC
Method: (§10) CRE Citrobacter freundii 9434, 9484 and CSE Citrobacter freundii 7646, a total of 3 strains;
as §1, §2, §3, §4, §5, §6, §7, §8

[11] = tested on: Citrobacter freundii 9484; assay: MIC, solid dilution method; format: cell-based; details: C.f 9484, CRE clinical isolate, MHA agar, 37° C., 16-20 hours, read-out: MIC
Method: as §10, §1, §2, §3, §4, §5, §6, §7, §8

[12] = tested on: Citrobacter freundii 7646; assay: MIC, solid dilution method; format: cell-based; details: C.f 7646, CSE clinical isolate, MHA agar, 37° C., 16-20 hours, read-out: MIC
Method: as §10, §1, §2, §3, §4, §5, §6, §7, §8

[13] = tested on: Klebsiella pneumoniae BAA-1705; assay: MIC, solid dilution method; format: cell-based; details: BAA1705, K.p BAA-1705, standard strain, MHA agar, 37° C., 16-20 hours, read-out: MIC
Method: (§11) (1) Standard strains: Escherichia coli BAA-2452, Escherichia coli ATCC25922, Klebsiella pneumoniae BAA-1705; all purchased from ATCC.
as §1, §2, §3, §4, §5, §6, §7, §8

[14] = tested on: Escherichia coli ATCC25922; assay: MIC, solid dilution method; format: cell-based; details: E. coli ATCC25922, standard strain, MHA agar, 37° C., 16-20 hours, read-out: MIC
Method: as §11, §1, §2, §3, §4, §5, §6, §7, §8

[15] = tested on: Escherichia coli BAA-2452; assay: MIC, solid dilution method; format: cell-based; details: BAA2452, E. coli BAA-2452, standard strain, MHA agar, 37° C., 16-20 hours, read-out: MIC
Method: as §11, §1, §2, §3, §4, §5, §6, §7, §8

Row | Compound | MIC (E. ae 14186) [µg/mL] | MIC [1] [µg/mL] | MIC [2] [µg/mL] | MIC [3] [µg/mL] | MIC [4] [µg/mL] | MIC [5] [µg/mL] | MIC [6] [µg/mL] | MIC50 (16 clinical CRE strains) [µg/mL] | MIC90 (16 clinical CRE strains) [µg/mL] | MIC [7] [µg/mL] | MIC [8] [µg/mL] | MIC [9] [µg/mL] | MIC (Klebsiella oxytoca 6777) [µg/mL] | MIC (Escherichia coli 14828) [µg/mL] | MIC (Escherichia coli 13897) [µg/mL] | MIC [10] [µg/mL] | MIC [11] [µg/mL] | MIC [12] [µg/mL] | MIC [13] [µg/mL] | MIC [14] [µg/mL] | further results
1 | CC1(C)[C@H](NC(=O)/C(=N\O[C@@H](COc2ccc3c(c2)CN(C(=N)NOCCN)C3)C(=O)O)c2csc(N)n2)C(=O)N1OS(=O)(=O)O [Compound 43] | 1 (≈ 1.46 µM) | > 8 | > 8 | 0.5 (≈ 0.729 µM) | 0.5 (≈ 0.729 µM) | 0.25 (≈ 0.365 µM) | 2 (≈ 2.92 µM) | 2 (≈ 2.92 µM) | > 8 | 0.125 (≈ 0.182 µM) | 1 (≈ 1.46 µM) | 2 (≈ 2.92 µM) | 1 (≈ 1.46 µM) | 0.5 (≈ 0.729 µM) | 0.25 (≈ 0.365 µM) | 0.5 (≈ 0.729 µM) | 0.125 (≈ 0.182 µM) | 0.5 (≈ 0.729 µM) | 1 (≈ 1.46 µM) | 0.06 (≈ 0.0875 µM) | MIC [15]: 0.5 µg/mL (≈ 0.729 µM)
2 | CC1(C)[C@H](NC(=O)/C(=N\O[C@@H](COc2ccc3c(c2)CN(C(=N)NCCN)C3)C(=O)O)c2csc(N)n2)C(=O)N1OS(=O)(=O)O [Compound 44] | 0.25 (≈ 0.373 µM) | 8 (≈ 11.9 µM) | 8 (≈ 11.9 µM) | 0.125 (≈ 0.187 µM) | 0.125 (≈ 0.187 µM) | 0.06 (≈ 0.0896 µM) | 0.5 (≈ 0.747 µM) | 0.5 (≈ 0.747 µM) | 8 (≈ 11.9 µM) | 0.03 (≈ 0.0448 µM) | 0.25 (≈ 0.373 µM) | 0.5 (≈ 0.747 µM) | 0.25 (≈ 0.373 µM) | 0.125 (≈ 0.187 µM) | 0.125 (≈ 0.187 µM) | 0.125 (≈ 0.187 µM) | 0.03 (≈ 0.0448 µM) | 0.125 (≈ 0.187 µM) | 0.25 (≈ 0.373 µM) | < 0.015 | MIC [15]: 0.25 µg/mL (≈ 0.373 µM)
3 | CC1(C)[C@H](NC(=O)/C(=N\O[C@@H](COc2ccc3c(c2)CN(/C(=N\[C@@H]2CCCNC2)N[C@@H]2CCCNC2)C3)C(=O)O)c2csc(N)n2)C(=O)N1OS(=O)(=O)O [Compound 46] | 0.25 (≈ 0.315 µM) | 8 (≈ 10.1 µM) | 8 (≈ 10.1 µM) | 0.25 (≈ 0.315 µM) | 0.125 (≈ 0.158 µM) | 0.125 (≈ 0.158 µM) | 1 (≈ 1.26 µM) | 1 (≈ 1.26 µM) | 8 (≈ 10.1 µM) | 0.125 (≈ 0.158 µM) | 0.5 (≈ 0.631 µM) | 1 (≈ 1.26 µM) | 0.25 (≈ 0.315 µM) | 0.125 (≈ 0.158 µM) | 0.125 (≈ 0.158 µM) | 0.125 (≈ 0.158 µM) | 0.06 (≈ 0.0757 µM) | 0.125 (≈ 0.158 µM) | 0.5 (≈ 0.631 µM) | < 0.015 | MIC [15]: 0.25 µg/mL (≈ 0.315 µM)
